Assay results published in ChEMBL document CHEMBL1128829, “Synthesis and pharmacological activities of a novel tripeptide mimetic dopamine prodrug” (Bioorg Med Chem Lett, 1995).
Where a SMILES comes first, the peptide text is derived from it.

Columns and labels:
Rattus norvegicus [1] = assay: Reduction of (+)-methamphetamine-induced rotational counts on unilateral-lesion rats at a dose of 9.60 mg/Kg after 1 h; type: functional
Rattus norvegicus [2] = assay: Reduction of (+)-methamphetamine-induced rotational counts on unilateral-lesion rats at a dose of 9.60 mg/Kg after 2 h; type: functional
Rattus norvegicus [3] = species on record: Rattus norvegicus; assay: Dimensionless membrane permeability (Pm) from in situ single-pass rat jejunal perfusion at a concentration of 0.1 mM; type: functional, organism-based
[4] = Net water uptake by a carrier mediated transport (%cm) mechanism; type: ADME; conditions: buffer
Rattus norvegicus [5] = species on record: Rattus norvegicus; assay: Percent recovery after 90 min of incubation in a rat intestinal mucosa suspension at 37 degree Centigrade; type: functional, organism-based
Rattus norvegicus [6] = species on record: Rattus norvegicus; assay: Percent recovery after 2 min of incubation in a rat intestinal mucosa suspension at 37 degree Centigrade; type: functional, organism-based
[7] = Percent of oral bioavailability up to 1000 mg/day; type: ADME, organism-based; conditions: eutheria, in vivo
Rattus norvegicus [8] = assay: Reduction of (+)-methamphetamine-induced rotational counts on unilateral-lesion rats at a dose of 4.20 mg/Kg after 1 h; type: functional

With `N[C@@H](C(=O)N1CCC[C@H]1C(=O)N[C@H](Cc1ccc(O)c(O)c1)C(=O)O)c1ccc(O)cc1` as the molecule, how does the Counts of rotation (Rattus norvegicus [1]) read?
Its Counts of rotation is 223 turns hr-1.

And the Counts of rotation (Rattus norvegicus [2])?
The Counts of rotation was 247 turns hr-1.

And the Permeability (Rattus norvegicus [3])?
Its Permeability is 1.53.

What about the Activity [4] of the same molecule?
Its Activity is 1.64%.

And the Recovery (Rattus norvegicus [5])?
Its Recovery is 95%.

For `NCC(=O)N[C@@H](Cc1ccccc1)C(=O)O` (H-Gly-Phe-OH), which Recovery (Rattus norvegicus [6]) is on record?
The Recovery was 19%.

For `N[C@@H](Cc1ccc(O)c(O)c1)C(=O)O` [LEVODOPA], which Permeability (Rattus norvegicus [3]) is on record?
The Permeability was 5.38.

And the bioavailability [7]?
The bioavailability was 33%.

And the Activity [4]?
Its Activity is 0.03%.

What about the Counts of rotation (Rattus norvegicus [8]) of the same molecule?
The Counts of rotation was 287 turns hr-1.
